In patent publication US8445461B2, “Pharmaceutical composition for meniere's disease” (Setsuko Takeda, priority 2007, dated 2013):

Tests used:
[1] = test system: animal model of experimental endolymphatic hydrops; assay: Reference Example 6: erythritol added polyvinylpyrrolidone, conditions of feces; type: in vivo, guinea pigs; conditions: erythritol 2.8 g/kg oral, alone or with PVP
Method: Guinea pigs (280 to 350 g of body weight, normal feces) received the surgical obliteration of the endolymphatic sac in the left ear to prepare an “animal model of experimental endolymphatic hydrops”. The surgery was performed as previously described in Non-patent Reference 8.
One month after, the animals orally received erythritol (2.8 g/kg) added polyvinylpyrrolidone (0.5 g/kg, about 7.1% by weight). […] The result is shown in FIG. 10 with comparing Group 4 in Example 2 (Animals were sacrificed 3 hours after the administration of erythritol 2.8 g/kg alone).

[2] = Volume of agent: volume, weight and particle size of formulations (Example 4); type: physicochemical; conditions: 21 g of erythritol
Method: When erythritol is administered to an adult (60 kg body weight), the single dose may be 10 to 80 g, preferably 20 to 60 g. When 21 g of erythritol is administered as powder, the volume may be about 53 ml. Alternatively, administered as saturated aqueous solution, it requires 65 ml of distilled water, and volume and weight thereof is 78 ml and 86 g, respectively. Carrying it to administer 3 times daily is inconvenient for a patient with Meniere's disease.
(§1) The volume of this gel formulation is 20.25 ml and the weight thereof is 36 g. By drying and grinding this gel formulation, the volume increases to 33 ml, however it is convenient for carrying. The particle size of dry milled powder is described in Table 44. If water (10 ml) is added thereto prior to use and mixed, a gel formulation (23 ml) is again obtained.
as §1, with “26.1” for “36”, “31.5 ml.” for “33 ml, however it is convenient for carrying.”, “(3” for “(10”, “(24” for “(23”

[3] = test system: experimental endolymphatic hydrops; assay: Endolymphatic hydrops decompression effect: IR-L, IR-S and regression lines in the operated ear; type: in vivo, guinea pigs; conditions: for Regression line IR-S vs IR-L: Y-intercept / Regression line IR-S vs IR-L: slope: operated ears; for Regression line IR-S vs IR-L: Y-intercept / Regression line IR-S vs IR-L: slope / IR-L (%) increase ratio of the length of Reissner's membrane / IR-S (%) increase ratio of the cross-sectional area of the scala media: active agent 2.8 g/kg oral; for IR-L (%) increase ratio of the length of Reissner's membrane / IR-S (%) increase ratio of the cross-sectional area of the scala media: operated side
Method: The endolymphatic hydrops-decompression effect of saccharides or sugar alcohols was evaluated by assaying as below in triplicate. Firstly, guinea pigs received the surgical obliteration of the endolymphatic sac in the left ear to prepare “experimental model animals with endolymphatic hydrops”. The surgical obliteration of the endolymphatic sac was carried out by burning the extraskeletal portion in the endolymphatic sac with a bipolar electrocoagulator. An endolymphatic sac plays an important role in the absorption of endolymphatic fluid. The inhibition of absorption of endolymphatic fluid was caused by burning the endolymphatic sac to prepare an experimental endolymphatic hydrops. Those hydrops are progressively formed. The size of hydrops becomes constant 2 weeks to month after the surgery and maintained for several months. In detail, see Non-patent Reference 8 for the surgery.
After 1 month, they were divided into 3 groups: Group 2-1 (groups 1-6), 60 animals; Group 2-2 (groups 7-10), 40 animals; and Group 2-3 (groups 11-20), […]. The animals in Group 2-1 received saccharides or sugar alcohols alone (Reference Example 5). The animals in Group 2-2 orally received saccharides or sugar alcohols added polysaccharides. The animals in Group 2-3 received other combinations of saccharides or sugar alcohols added polysaccharides. Animals were sacrificed after the oral administration and the observation and the assessment the gastrointestinal condition, and observed the morphological change of the cochlea mainly in the operated side (left side), in particular of the endolymphatic hydrops decompression effect.
I were obtained left sides of the temporal bones immediately following fixation and kept them in 10% formalin solution for 10 days or more. They were decalcified with 5% trichloroacetic acid and dehydrated with alcohol in increasing concentration, then embedded in paraffin and celloidin. The prepared blocks were cut serially in the horizontal plane. The mid-modiolar sections were stained in hematoxylin and eosin and studied under a light microscope. For the quantitative assessment of changes of the endolymphatic space, the change ratios of the length of Reissner's membrane and the cross-sectional area of the scala media in each turn were measured from the mid-modiolar sections of the cochlea.
From these parameters, the increase ratios (%) of the length of Reissner's membrane (IR-L) and the cross-sectional area (%) of the scala media (IR-S) of a total of four turns were calculated according to the equation as described below:
The increase ratio of the length of Reissner's membrane (IR-L)=100×Σ(Lx−L*x)/ΣL*x (x: first, second, third and fourth turns)
The increase ratio of the cross-section area of the scala media (IR-S)=100×Σ(Sx−S*x)/ΣS*x (x: first, second, third and fourth turns)
Since almost no difference is shown in the regression lines of each group, it cannot be understood that there is the decompression effect of erythritol alone. When endolymphatic hydrops is formed, the cross-sectional area of scala media and the length of Reissner's membrane will increase. It can be assumed from FIG. 1 that there is statistically a primary correlation between both of them in the operated side in the control group. The regression lines are; IR-S (distilled water)=4.011+1.212*IR-L (distilled water); R2=0.987, IR-S (1 hour after)=5.409+1.1*IR-L (1 hour after); R2=0.903, IR-S (2 hours after)=1.125+0.992*IR-L (2 hours after); R2=0.98, IR-S (3 hours after)=2.407+1.309*IR-L (3 hours after); R2=0.974, IR-S (6 hours after)=7.36+1.147*IR-L (6 hours after); R2=0.895, IR-S (12 hours after)=8.089+1.152*IR-L (12 hours after); R2=0.918.
The difference of decompression effect on endolymphatic hydrops depending on dose of pectin added and time-course of the decompression effect can hardly determined by comparing and analyzing the average and standard deviation of IR-L and IR-S in the operated side in each groups. […]

[4] = alone or with additive, 3 hours after
[5] = alone or with additive, 6 hours after
[6] = alone or with additive, 12 hours after
[7] = alone or with additive, perfusion 3 hours after
[8] = alone or with additive, perfusion 6 hours after
[9] = alone or with additive, perfusion 12 hours after

- Hardness of feces 0 (Muddy): number of animals [1]: 5
- Hardness of feces 1 (Soft): number of animals [1]: 0
- Hardness of feces 2 (Slightly soft): number of animals [1]: 0
- Hardness of feces 3 (Normal): number of animals [1]: 0
- Distilled water required for saturated aqueous solution [2]: 65 mL
- Volume as powder [2]: about 53 ml
- Volume of saturated aqueous solution [2]: 78 mL
- Weight of saturated aqueous solution [2]: 86 g
SMILES: OC[C@@H](O)[C@@H](O)CO [Erythritol, erythritol]
- Difference of regression lines from control (ANCOVA test) ([3]; erythritol 2.8 g/kg alone, E1H to E12H groups (1 to 12 hours after)): no significant difference
- Regression line IR-S vs IR-L: Y-intercept [3, 4]: 2.407
- Regression line IR-S vs IR-L: slope [3, 4]: 1.309
- Regression line IR-S vs IR-L: Y-intercept [3, 5]: 7.36
- Regression line IR-S vs IR-L: slope [3, 5]: 1.147
- Regression line IR-S vs IR-L: Y-intercept [3, 6]: 8.089
- Regression line IR-S vs IR-L: slope [3, 6]: 1.152
- Regression line IR-S vs IR-L: Y-intercept ([3]; 1 hour after): 5.409
- Regression line IR-S vs IR-L: slope ([3]; 1 hour after): 1.1
- Regression line IR-S vs IR-L: Y-intercept ([3]; 2 hours after): 1.125
- Regression line IR-S vs IR-L: slope ([3]; 2 hours after): 0.992
- IR-L (%) increase ratio of the length of Reissner's membrane [3, 7]: 23.2 ± 16.9%
- IR-S (%) increase ratio of the cross-sectional area of the scala media [3, 7]: 32.7 ± 22.4%
- IR-L (%) increase ratio of the length of Reissner's membrane [3, 8]: 37.8 ± 24.8%
- IR-S (%) increase ratio of the cross-sectional area of the scala media [3, 8]: 51.4 ± 38.1%
- IR-L (%) increase ratio of the length of Reissner's membrane [3, 9]: 37.5 ± 18.7%
- IR-S (%) increase ratio of the cross-sectional area of the scala media [3, 9]: 51.4 ± 22.5%
- IR-L (%) increase ratio of the length of Reissner's membrane ([3]; perfusion 1 hour after): 24.2 ± 20.2%
- IR-S (%) increase ratio of the cross-sectional area of the scala media ([3]; perfusion 1 hour after): 32.1 ± 23.3%
- IR-L (%) increase ratio of the length of Reissner's membrane ([3]; perfusion 2 hours after): 29.4 ± 25.5%
- IR-S (%) increase ratio of the cross-sectional area of the scala media ([3]; perfusion 2 hours after): 30.2 ± 26.3%
